Experimental data published in patent US20250171457A1, “NITROGEN-CONTAINING HETEROCYCLIC COMPOUND HAVING NRF2 ACTIVATION EFFECT” (CHUGAI SEIYAKU KABUSHIKI KAISHA, priority 2022, published 2025).

These compounds were tested on Nrf2 transcriptional activity (pARE-Luc reporter) in HepG2 cells (assay: In vitro Nrf2 transcriptional activity measurement by ARE-dependent reporter assay in HepG2 cell). Details: Homo sapiens; HepG2 cells transfected with pARE-Luc, 4 hours at 37° C.; luciferase activity of Example 1-54 or Example 17-23 at 3.75 μM defined as 100%.
Type: cell-based, human
Experimental: Test Example 1: In Vitro Nrf2 Transcriptional Activity Measurement by ARE-Dependent Reporter Assay in HepG2 Cell
A human liver cancer-derived cell line HepG2 was transfected with pGL4.37 vector (pARE-Luc, Promega Corp.) and incubated overnight at 37° C. in a humidified atmosphere containing 5% CO2. The cells were dissociated by trypsin treatment, inoculated to a 384-well plate supplemented with a test compound, and incubated at 37° C. for 4 hours. Then, Bright-Glo Reagent (Promega Corp.) was added to the plate, and luciferase activity was measured with Envision plate reader.
Luciferase activity obtained through the action of the compound of Example 1-54 or Example 17-23 at a concentration of 3.75 μM was defined as 100%. The luciferase activity of each well was converted to a response rate (%). The dose-response curve of the compound of each Example was prepared to calculate a 50% effective concentration (EC50).

Row | Compound | EC50
1 | O=C(O)c1cc(F)c(-c2cccc3c2OCN(C(=O)c2c(Cl)cc(N4CC(O)C4)cc2Cl)C3)cc1N1C2CCC1COC2 [Compound 1-17, 4-[3-[2,6-Dichloro-4-(3-hydroxyazetidin-1-yl)benzoyl]-2,4-dihydro-1,3-benzoxazin-8-yl]-5-fluoro-2-(3-oxa-8-azabicyclo[3.2.1]octan-8-yl)benzoic acid] | 19 nM
2 | O=C(O)c1cc(F)c(-c2cccc3c2OCN(C(=O)c2c(Cl)cc(N4CC(F)(F)C4)cc2Cl)C3)cc1N1C2CCC1COC2 [Compound 1-19, 4-[3-[2,6-Dichloro-4-(3,3-difluoroazetidin-1-yl)benzoyl]-2,4-dihydro-1,3-benzoxazin-8-yl]-5-fluoro-2-(3-oxa-8-azabicyclo[3.2.1]octan-8-yl)benzoic acid] | 6.3 nM
3 | O=C(O)c1cc(F)c(-c2cccc3c2OCN(C(=O)c2c(Cl)cc(N4CC(F)C4)cc2Cl)C3)cc1N1C2CCC1COC2 [Compound 1-20, 4-[3-[2,6-Dichloro-4-(3-fluoroazetidin-1-yl)benzoyl]-2,4-dihydro-1,3-benzoxazin-8-yl]-5-fluoro-2-(3-oxa-8-azabicyclo[3.2.1]octan-8-yl)benzoic acid] | 3.2 nM
4 | CO[C@@H]1COC2(C1)CN(c1cc(Cl)c(C(=O)N3COc4c(cccc4-c4cc(N5C6CCC5COC6)c(C(=O)O)cc4F)C3)c(Cl)c1)C2 [Compound 1-22, 4-[3-[2,6-Dichloro-4-[(7S)-7-methoxy-5-oxa-2-azaspiro[3.4]octan-2-yl]benzoyl]-2,4-dihydro-1,3-benzoxazin-8-yl]-5-fluoro-2-(3-oxa-8-azabicyclo[3.2.1]octan-8-yl)benzoic acid] | 2.1 nM
5 | CO[C@H]1COC2(C1)CN(c1cc(Cl)c(C(=O)N3COc4c(cccc4-c4cc(N5C6CCC5COC6)c(C(=O)O)cc4F)C3)c(Cl)c1)C2 [Compound 1-23, 4-[3-[2,6-Dichloro-4-[(7R)-7-methoxy-5-oxa-2-azaspiro[3.4]octan-2-yl]benzoyl]-2,4-dihydro-1,3-benzoxazin-8-yl]-5-fluoro-2-(3-oxa-8-azabicyclo[3.2.1]octan-8-yl)benzoic acid] | 1.9 nM
6 | CO[C@H]1C[C@@]2(CN(c3cc(Cl)c(C(=O)N4COc5c(cccc5-c5cc(N6C7CCC6COC7)c(C(=O)O)cc5F)C4)c(Cl)c3)[C@@H]2C)C1 [Compound 1-24, 4-[3-[2,6-Dichloro-4-[(1R,4r,6R)-6-methoxy-1-methyl-2-azaspiro[3.3]heptan-2-yl]benzoyl]-2,4-dihydro-1,3-benzoxazin-8-yl]-5-fluoro-2-(3-oxa-8-azabicyclo[3.2.1]octan-8-yl)benzoic acid] | 1.4 nM
7 | CO[C@H]1C[C@@]2(CN(c3cc(Cl)c(C(=O)N4COc5c(cccc5-c5cc(N6C7CCC6COC7)c(C(=O)O)cc5F)C4)c(Cl)c3)[C@H]2C)C1 [Compound 1-25, 4-[3-[2,6-Dichloro-4-[(1S,4r,6S)-6-methoxy-1-methyl-2-azaspiro[3.3]heptan-2-yl]benzoyl]-2,4-dihydro-1,3-benzoxazin-8-yl]-5-fluoro-2-(3-oxa-8-azabicyclo[3.2.1]octan-8-yl)benzoic acid] | 1.5 nM
8 | CO[C@H]1C[C@]2(CN(c3cc(Cl)c(C(=O)N4COc5c(cccc5-c5cc(N6C7CCC6COC7)c(C(=O)O)cc5F)C4)c(Cl)c3)[C@@H]2C)C1 [Compound 1-26, 4-[3-[2,6-Dichloro-4-[(1R,4s,6S)-6-methoxy-1-methyl-2-azaspiro[3.3]heptan-2-yl]benzoyl]-2,4-dihydro-1,3-benzoxazin-8-yl]-5-fluoro-2-(3-oxa-8-azabicyclo[3.2.1]octan-8-yl)benzoic acid] | 1.4 nM
9 | CO[C@H]1C[C@]2(CN(c3cc(Cl)c(C(=O)N4COc5c(cccc5-c5cc(N6C7CCC6COC7)c(C(=O)O)cc5F)C4)c(Cl)c3)[C@H]2C)C1 [Compound 1-27, 4-[3-[2,6-Dichloro-4-[(1S,4s,6R)-6-methoxy-1-methyl-2-azaspiro[3.3]heptan-2-yl]benzoyl]-2,4-dihydro-1,3-benzoxazin-8-yl]-5-fluoro-2-(3-oxa-8-azabicyclo[3.2.1]octan-8-yl)benzoic acid] | 2.9 nM
10 | CO[C@@H]1CCOC12CN(c1cc(Cl)c(C(=O)N3COc4c(cccc4-c4cc(N5C6CCC5COC6)c(C(=O)O)cc4F)C3)c(Cl)c1)C2 [Compound 1-30, 4-[3-[2,6-Dichloro-4-[(8R)-8-methoxy-5-oxa-2-azaspiro[3.4]octan-2-yl]benzoyl]-2,4-dihydro-1,3-benzoxazin-8-yl]-5-fluoro-2-(3-oxa-8-azabicyclo[3.2.1]octan-8-yl)benzoic acid] | 2.6 nM
11 | CO[C@H]1CCOC12CN(c1cc(Cl)c(C(=O)N3COc4c(cccc4-c4cc(N5C6CCC5COC6)c(C(=O)O)cc4F)C3)c(Cl)c1)C2 [Compound 1-31, 4-[3-[2,6-Dichloro-4-[(8S)-8-methoxy-5-oxa-2-azaspiro[3.4]octan-2-yl]benzoyl]-2,4-dihydro-1,3-benzoxazin-8-yl]-5-fluoro-2-(3-oxa-8-azabicyclo[3.2.1]octan-8-yl)benzoic acid] | 1.9 nM
12 | O=C(O)c1cc(F)c(-c2cccc3c2OCN(C(=O)c2c(Cl)cc(N4CCNC(C(F)(F)F)C4)cc2Cl)C3)cc1N1C2CCC1COC2 (centres unmarked) [Compound 1-32, 4-[3-[2,6-Dichloro-4-[3-(trifluoromethyl)piperazin-1-yl]benzoyl]-2,4-dihydro-1,3-benzoxazin-8-yl]-5-fluoro-2-(3-oxa-8-azabicyclo[3.2.1]octan-8-yl)benzoic acid] | 1.5 nM
13 | CN1CCN(c2cc(Cl)c(C(=O)N3COc4c(cccc4-c4cc(N5C6CCC5COC6)c(C(=O)O)cc4F)C3)c(Cl)c2)CC12COC2 [Compound 1-34, 4-[3-[2,6-Dichloro-4-(5-methyl-2-oxa-5,8-diazaspiro[3.5]nonan-8-yl)benzoyl]-2,4-dihydro-1,3-benzoxazin-8-yl]-5-fluoro-2-(3-oxa-8-azabicyclo[3.2.1]octan-8-yl)benzoic acid] | 39 nM
14 | O=C(O)c1cc(F)c(-c2cccc3c2OCN(C(=O)c2c(Cl)cc(N4CCN(CC(F)(F)F)CC4)cc2Cl)C3)cc1N1C2CCC1COC2 [Compound 1-35, 4-[3-[2,6-Dichloro-4-[4-(2,2,2-trifluoroethyl)piperazin-1-yl]benzoyl]-2,4-dihydro-1,3-benzoxazin-8-yl]-5-fluoro-2-(3-oxa-8-azabicyclo[3.2.1]octan-8-yl)benzoic acid] | 5.8 nM
15 | CN1CC2CCCC(C1)N2c1cc(Cl)c(C(=O)N2COc3c(cccc3-c3cc(N4C5CCC4COC5)c(C(=O)O)cc3F)C2)c(Cl)c1 [Compound 1-36, 4-[3-[2,6-Dichloro-4-(3-methyl-3,9-diazabicyclo[3.3.1]nonan-9-yl)benzoyl]-2,4-dihydro-1,3-benzoxazin-8-yl]-5-fluoro-2-(3-oxa-8-azabicyclo[3.2.1]octan-8-yl)benzoic acid] | 1.8 nM
16 | O=C(O)c1cc(F)c(-c2cccc3c2OCN(C(=O)c2c(Cl)cc(N4CC5CCC(C4)O5)cc2Cl)C3)cc1N1C2CCC1COC2 [Compound 1-37, 4-[3-[2,6-Dichloro-4-(8-oxa-3-azabicyclo[3.2.1]octan-3-yl)benzoyl]-2,4-dihydro-1,3-benzoxazin-8-yl]-5-fluoro-2-(3-oxa-8-azabicyclo[3.2.1]octan-8-yl)benzoic acid] | 2.1 nM
17 | O=C(O)c1cc(F)c(-c2cccc3c2OCN(C(=O)c2c(Cl)cc(N4CCOC5CC54)cc2Cl)C3)cc1N1C2CCC1COC2 (centres unmarked) [Compound 1-38, 4-[3-[2,6-Dichloro-4-(2-oxa-5-azabicyclo[4.1.0]heptan-5-yl)benzoyl]-2,4-dihydro-1,3-benzoxazin-8-yl]-5-fluoro-2-(3-oxa-8-azabicyclo[3.2.1]octan-8-yl)benzoic acid] | 1.8 nM
